For one assay, the system named is HEK 293T cells. Kind of assay: accumulation of K48- and K63-linked Ub species in HEK 293T cells. The following applies: 50 μM, 2 h. It is filed as cell-based, human. How it is done:
FIG. 32 depicts data showing that diphenyl carbonates inhibit DUBs in HEK 293T cells. A. Viability of HEK 293T cells assessed by the propidium iodide exclusion method: diphenyl carbonate (100 μM), bortezomib (V, 20 μM) and G5 (2 μM). N≧3, mean+/−s.d. B. HEK 293T cells were treated with the stated compounds (50 μM) for 2 h and then assayed for the accumulation of K48-linked Ub species. C. As in A, but K63-linked Ub was assayed. D. HEK 293T cells were treated with C14, C15, C17, C18 (100 μM) or DMSO for 2 hours, then harvested, lysed and treated with HA-Ub-VS. After 30 min, lysates were analyzed by SDS-PAGE and probed for HA, tubulin and actin. An intervening lane was removed for clarity. E. HEK 293T cells expressing Ub-G76V-GFP were treated with diphenyl carbonates (100 μM), bortezomib (20 μM) and G5 (2 μM). […] N>3, Mean+/−s.d. See also FIG. 39. […]

The subject of a further assay is K562 cells. The experiment in a line: accumulation of K48- and K63-linked Ub in K562 cells. It is filed as cell-based, human. The conditions noted are these: for accumulation of K48-linked HMW-Ub: 50 μM, 2 h. Here is the method: FIG. 34 depicts data showing that diphenylcarbonates cause the accumulation of HMW-Ub and reduce the levels of Bcr-Abl in K562 cells. A. K562 cells were treated with diphenyl carbonates (50 μM) for 2 h and then assayed for the accumulation of K48-linked Ub. B. As in A, but Bcr-Abl was measured by immunoblotting with anti-Abl antibodies. C. K562 cells were treated with C17 (50 μM) in the presence and absence of bortezomib (6 μM) for 4 hours and Bcr-Abl was measured by immunblotting with anti-Abl antibodies. D. Quantitation of blot in C. Significance: DMSO relative to C17 and bortezomib p=0.002; DMSO relative to C17, p=0.03. E. K562 cells were treated with C15 for 4 hours then analyzed for SMAD4 monoubiquitination by western blot. F. Quantitation of blots in A. (N=3). See also FIG. 40.
FIG. 40 depicts data showing that diphenyl carbonates induce the degradation of Bcr-Abl kinase. A. K562 cells were treated with C17 for 24 h (1 dose) then analyzed for Bcr-Abl expression by western blot with anti-Abl antibody. B. Quantitation of blots in A normalized to actin. C. K562 cells were treated with C17 for 24 h then the amount of cells in G1 and apoptosis were recorded (N=3). D. K562 were treated with C15 for 4 h then analyzed for Bcr-Abl expression using western blot. E. Quantitation of Bcr-Abl from D normalized to tubulin (N=4). F. Same K562 lysates were separately analyzed for K63-linked ubiquitin. G. Quantitation of blots in F (N=4). Differences between all bars is significant p<0.01). H. K562 cells were treated with C15 for 24 h after which time cells were fixed in ethanol, treated with propodium iodide/RNAse then analyzed by FACS. Viability was calculated using forward and side scatter. I. Same experiment as H but red fluorescence was measured to determine DNA content
Transfected cells were harvested 1.5 days post transfection. […] Typically clarified lysate was analyzed.

Another assay has as its system DUBs. The experiment in a line: decomposition of high molecular weight ubiquitinated proteins (HMW-Ub) in lysates of HEK 293T cells expressing HA-Ub. It is filed as biochemical, human. The following applies: for DUB inhibitory activity, SAR in words: relative to C4 or parent analog. How it is done:
FIG. 30 depicts data showing that diphenylcarbonates inhibit the decomposition of high molecular weight ubiquitinated proteins (HMW-Ub). Lysates were prepared from HEK 293T cells expressing HA-ubiquitin. Samples were incubated at 37° C. and reactions were quenched by the addition of reducing Laemmli buffer. HMW-Ub was assessed by SDS-PAGE and immunoblotting with anti-HA antibody. A. Representative immunoblots measuring the decomposition of HMW-Ub in lysates treated with either the DMSO vehicle, G5 (10 μM) or C4 (500 μM). B. Plot of the decomposition of HMW-Ub in lysates treated with DMSO and C4 (500 μM) (N=2; error bars denote range). C. Inhibition of HMW-Ub decomposition by diphenylcarbonates. Lysates were treated with diphenylcarbonates (50 μM). “-” denotes no treatment; D, 1% DMSO vehicle; IU1, an USP14-specific inhibitor; Bort, bortezomib, a proteasome inhibitor. D. Representative decomposition of HMW-Ub after 2 h incubation in the presence of varying concentrations of C4. See also FIG. 36. E. Quantitation of D. The values of EC50 reported in FIG. 29B are the average and S.E.M. of at least 3 independent experiments. See also FIG. 37 and FIG. 38.
Cells overexpressing HA-ubiquitin were prepared as above. Pellets were typically stored at −80° C. until required, at which time they were thawed on ice. Cell lysis was performed in lysis buffer using a Dounce homogenizer (10 strokes, with grinding, on ice: typical yield approx. 2-5 mg protein per transfected T75 flask for HEK 293T cells; 1-3 mg protein from a T75 flask for Cos-1). Crude lysate was centrifuged at 17000 g for 10 min at 4° C., after which time the concentration of the lysate was normalized to 1 mg/mL. The lysate was aliquoted into PCR strip tubes (typical volumes 75-50 μL) and compound in DMSO was added to this to give a final concentration of DMSO of 1%. Tubes were briefly centrifuged, overlaid with Chill-out wax (50 μL) and placed in a PCR machine at 37° C. with heated lid set to 37° C. Aliquots (9 μL) were removed at the stated times and immediately quenched in (2× final concentration) reducing (dithiothreitol) loading buffer and frozen (−19° C.) till required. Western blot analysis was carried out using standard methods. Samples were resolved by SDS-PAGE, transferred to PVDF [(0.45 μm) (Towbin buffer, tank apparatus, 90 V 1 hour, then overnight at 30 V, 4° C.)] then blocked in 15% milk in TBS-T HS (100 mM Tris HCl, pH 7.6, 500 mM NaCl, 0.5% […]) for at least 2 hours at RT. Afterward, membrane was washed in TBS-T HS then probed with anti HA-HRP (1:18000) for 1.33 hours at RT. Membrane was washed 3 times in TBS-T HS (15 mins) then once in TBS (15 mins) and exposed to ECL II and visualized using blue biofilm. […] When required, membranes were stripped in 100 mM glycine pH 4, 500 mM NaCl, 1% SDS, 5 mM BME, at 55° C. for 19 mins, then analyzed.
Lysates were prepared from HEK 293T cells expressing N-terminally HA-tagged ubiquitin (HA-Ub) to facilitate the observation of ubiquitinated proteins. In the absence of a DUB inhibitor, the HMW-Ub pool decomposed with a half-life of 34 min (FIG. 30A,B). […] Similar results were obtained in lysates prepared from Cos-1 cells expressing HA-Ub.

The source of these data is patent US20160090351A1, “INHIBITORS OF DEUBIQUITINATING PROTEASES” (BRANDEIS UNIVERSITY, priority 2013, published 2016).

As to `NCc1ccc(OC(=O)Oc2cccc3ccccc23)cc1` [Compound C18], in the assay with HEK 293T cells, the “accumulation of K48-linked HMW-Ub” value is given as “K48-linked HMW-Ub species accumulated” and the “accumulation of K63-linked Ub chains” value is reported as “increase the accumulation of K63-linked Ub chains”. Besides, the “accumulation of K48-linked HMW-Ub” value with K562 cells was “caused the accumulation of K48-linked HMW-Ub in K562 cells”. Moreover, in the assay with DUBs, the “DUB inhibitory activity, SAR in words” value was “improved potency relative to C4”.

As to `NCc1ccc(OC(=O)Oc2ccc(Cl)cc2)cc1` [Compound C14, 4-(aminomethyl)phenyl(4-chlorophenol)carbonate], in the assay with HEK 293T cells, the “accumulation of K48-linked HMW-Ub” value is on record as “K48-linked HMW-Ub species accumulated” and the “accumulation of K63-linked Ub chains” value is listed as “increase the accumulation of K63-linked Ub chains”. Also, the “accumulation of K48-linked HMW-Ub” value in the assay with K562 cells is listed as “caused the accumulation of K48-linked HMW-Ub in K562 cells”. Besides, the “increase of inhibitory potency relative to C4 (factor)” value with DUBs is “approximately 10”.

`NCc1ccc(OC(=O)Oc2ccc3ccccc3c2)cc1` [Compound C17]: in the assay on HEK 293T cells, the “accumulation of K48-linked HMW-Ub” value is given as “K48-linked HMW-Ub species accumulated” and the “accumulation of K63-linked Ub chains” value is recorded as “increase the accumulation of K63-linked Ub chains”. Further, the “accumulation of K48-linked HMW-Ub” value in the assay on K562 cells is reported as “caused the accumulation of K48-linked HMW-Ub in K562 cells”. For the same compound, the “DUB inhibitory activity, SAR in words” value with DUBs is listed as “improved potency relative to C4”.

For `O=C1/C(=C/c2ccc([N+](=O)[O-])cc2)CS(=O)(=O)C/C1=C\c1ccc([N+](=O)[O-])cc1` [Compound G5, reference compound], in the assay with DUBs (HEK 293T HA-Ub lysates, 37° C.), the “stabilization of the HMW-Ub pool” value is recorded as “stabilized the HMW-Ub pool”.

As to `NCc1ccc(OC(=O)Oc2ccc(Br)cc2)cc1` [Compound C15, 4-(aminomethyl)phenyl(4-bromophenyl)carbonate], the “accumulation of K48-linked HMW-Ub” value in the assay on HEK 293T cells is given as “K48-linked HMW-Ub species accumulated”; with K562 cells it was “caused the accumulation of K48-linked HMW-Ub in K562 cells”. Moreover, the “accumulation of K63-linked Ub chains” value in the assay on HEK 293T cells is listed as “increase the accumulation of K63-linked Ub chains”. The “accumulation of K63-linked ubiquitin” value in the assay with K562 cells (C15 4 h) is recorded as “caused the accumulation of K63-linked ubiquitin”. In addition, in the assay with DUBs, the “increase of inhibitory potency relative to C4 (factor)” value was “approximately 10”.
